Reference: ChEMBL document CHEMBL1201862, “PubChem BioAssay data set” (2004)
Activity calls are given as the source filed them.

Legend:
[1] = molecular target: Serine/threonine-protein kinase BRSK1 (Homo sapiens, UniProt Q8TDC3); format: functional;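 also: measured within a kinome-wide kinase panel, with the target listed as KIAA1811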
[2] = molecular target: Serine/threonine-protein kinase D3 (Homo sapiens, UniProt O94806); format: functional;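 also: determined within a kinase panel screen, with PRKCN as the panel member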
[3] = molecular target: Cyclin-dependent kinase 1 (Homo sapiens, UniProt P06493); format: functional;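 also: Kinome-wide panel profiling, with the target listed as panel member CDC2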
[4] = molecular target: Non-receptor tyrosine-protein kinase TYK2 (Homo sapiens, UniProt P29597); format: functional
[5] = molecular target: Leukocyte tyrosine kinase receptor (Homo sapiens, UniProt P29376); assay: Navigating the Kinome. Panel member name: LTK; format: functional
[6] = molecular target: Fibroblast growth factor receptor 3 (Homo sapiens, UniProt P22607); format: functional
[7] = molecular target: Fibroblast growth factor receptor 1 (Homo sapiens, UniProt P11362); format: functional
[8] = molecular target: Glycogen synthase kinase-3 alpha (Homo sapiens, UniProt P49840); format: functional;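 also: GSK3A result taken from a broad kinome-wide kinase panel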
[9] = molecular target: Mast/stem cell growth factor receptor Kit (Homo sapiens, UniProt P10721); format: functional;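 also: KIT entry within a kinase panel assay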
LIM domain kinase 1 = LIM domain kinase 1 (Homo sapiens, UniProt P53667); assay: Navigating the Kinome. Panel member name: LIMK1; format: functional
[10] = molecular target: Casein kinase II subunit alpha (Homo sapiens, UniProt P68400); format: functional
[11] = molecular target: Serine/threonine-protein kinase SIK2 (Homo sapiens, UniProt Q9H0K1); assay: Navigating the Kinome. Panel member name: SIK2; format: functional
[12] = molecular target: Calcium/calmodulin-dependent protein kinase kinase 2 (Homo sapiens, UniProt Q96RR4); assay: Navigating the Kinome. Panel member name: CAMKK2; format: functional
[13] = molecular target: Homeodomain-interacting protein kinase 2 (Homo sapiens, UniProt Q9H2X6); format: functional;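 also: measured within a kinome-wide kinase profiling panel, HIPK2 being one panel member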
[14] = molecular target: Cyclin-dependent kinase 9 (Homo sapiens, UniProt P50750); format: functional;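 also: value from the CDK9 entry of a kinome-spanning kinase panel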
[15] = molecular target: Dual specificity mitogen-activated protein kinase kinase 2 (Homo sapiens, UniProt P36507); assay: Navigating the Kinome. Panel member name: MAP2K2; format: functional
[16] = molecular target: Serine/threonine-protein kinase TBK1 (Homo sapiens, UniProt Q9UHD2); assay: Navigating the Kinome. Panel member name: TBK1; format: functional
[17] = molecular target: Insulin-like growth factor 1 receptor (Homo sapiens, UniProt P08069); assay: Navigating the Kinome. Panel member name: IGF1R; format: functional
[18] = molecular target: Serine/threonine-protein kinase 17A (Homo sapiens, UniProt Q9UEE5); format: functional
[19] = molecular target: Tyrosine-protein kinase FRK (Homo sapiens, UniProt P42685); format: functional;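 also: FRK tested as one member of a kinome panel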
[20] = molecular target: RAC-alpha serine/threonine-protein kinase (Homo sapiens, UniProt P31749); format: functional;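 also: AKT1 affinity measured as one member of a kinome-wide kinase profiling panel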
[21] = molecular target: Protein-tyrosine kinase 6 (Homo sapiens, UniProt Q13882); format: functional
[22] = molecular target: Cyclin-dependent kinase 8 (Homo sapiens, UniProt P49336); assay: Navigating the Kinome. Panel member name: CDK8; format: functional
[23] = molecular target: Leucine-rich repeat serine/threonine-protein kinase 2 (Homo sapiens, UniProt Q5S007); format: functional;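 also: value from a broad kinome-wide panel profiling study in which LRRK2 was one of the kinases tested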
[24] = molecular target: Tyrosine-protein kinase Fer (Homo sapiens, UniProt P16591); format: functional;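 also: FER tested as one member of a kinome panel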
[25] = molecular target: Tyrosine-protein kinase Srms (Homo sapiens, UniProt Q9H3Y6); format: functional;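 also: SRMS measured as one member of a kinome-wide kinase profiling panel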
[26] = molecular target: Mitogen-activated protein kinase kinase kinase kinase 2 (Homo sapiens, UniProt Q12851); format: functional;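 also: measured as one member of a kinome-wide kinase panel, with MAP4K2 as the panel entry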
[27] = molecular target: Cell division cycle 7-related protein kinase (Homo sapiens, UniProt O00311); format: functional;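 also: value obtained from a kinome-wide kinase panel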
[28] = molecular target: Calcium/calmodulin-dependent protein kinase type II subunit gamma (Homo sapiens, UniProt Q13555); format: functional
[29] = molecular target: Vascular endothelial growth factor receptor 1 (Homo sapiens, UniProt P17948); format: functional;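 also: measured within a kinome-wide profiling panel, FLT1 as the panel member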
[30] = molecular target: Protein-tyrosine kinase 2-beta (Homo sapiens, UniProt Q14289); format: functional
[31] = molecular target: MAP/microtubule affinity-regulating kinase 4 (Homo sapiens, UniProt Q96L34); assay: Navigating the Kinome. Panel member name: MARK4; format: functional
[32] = molecular target: ATP-dependent molecular chaperone HSP82 (Candida albicans (strain WO-1) (Yeast), UniProt C4YTQ8); assay: loss of DOC-induced GRE-beta-galactosidase reporter signal, dose response, Hsp90 inhibitor project, S. cerevisiae, luminescence (AID 2400); format: functional, cell-based;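 also: beta-galactosidase luminescence from glucocorticoid response element reporter as proxy for Hsp90 function; inhibitor potency where signal loss means Hsp90 inhibition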
Protein RecA = molecular target: T1, Protein RecA (Mycobacterium tuberculosis, UniProt P9WHJ3); assay: Fluorescence Cell-Free Homogeneous Dose Retest to Identify Inhibitors of RecA-Intein Splicing Activity. [Related pubchem assays (depositor defined):AID2097, AID2223, AID489010, AID492950]; format: functional
T1 sequence (P9WHJ3 whole entry): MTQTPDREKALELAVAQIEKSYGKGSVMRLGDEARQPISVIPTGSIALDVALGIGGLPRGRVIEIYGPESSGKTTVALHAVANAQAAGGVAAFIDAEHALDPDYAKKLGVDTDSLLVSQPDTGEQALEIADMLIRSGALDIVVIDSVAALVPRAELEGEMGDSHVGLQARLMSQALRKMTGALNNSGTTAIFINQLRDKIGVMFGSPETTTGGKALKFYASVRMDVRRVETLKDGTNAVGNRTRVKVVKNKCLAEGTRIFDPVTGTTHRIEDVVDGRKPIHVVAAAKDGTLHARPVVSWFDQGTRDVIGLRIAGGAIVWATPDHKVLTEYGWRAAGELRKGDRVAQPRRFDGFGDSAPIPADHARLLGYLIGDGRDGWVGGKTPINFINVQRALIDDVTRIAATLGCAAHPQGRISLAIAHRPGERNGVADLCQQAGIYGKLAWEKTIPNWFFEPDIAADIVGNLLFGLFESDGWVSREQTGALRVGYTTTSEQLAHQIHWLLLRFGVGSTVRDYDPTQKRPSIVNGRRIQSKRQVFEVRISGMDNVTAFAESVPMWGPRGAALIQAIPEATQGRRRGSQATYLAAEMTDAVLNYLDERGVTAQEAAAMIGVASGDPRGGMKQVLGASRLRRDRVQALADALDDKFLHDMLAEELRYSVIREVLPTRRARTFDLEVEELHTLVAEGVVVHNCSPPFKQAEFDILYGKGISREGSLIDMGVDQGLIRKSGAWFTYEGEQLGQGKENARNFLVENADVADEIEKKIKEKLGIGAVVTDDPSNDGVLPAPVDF

Sequence of Serine/threonine-protein kinase 17A (Q9UEE5 whole entry): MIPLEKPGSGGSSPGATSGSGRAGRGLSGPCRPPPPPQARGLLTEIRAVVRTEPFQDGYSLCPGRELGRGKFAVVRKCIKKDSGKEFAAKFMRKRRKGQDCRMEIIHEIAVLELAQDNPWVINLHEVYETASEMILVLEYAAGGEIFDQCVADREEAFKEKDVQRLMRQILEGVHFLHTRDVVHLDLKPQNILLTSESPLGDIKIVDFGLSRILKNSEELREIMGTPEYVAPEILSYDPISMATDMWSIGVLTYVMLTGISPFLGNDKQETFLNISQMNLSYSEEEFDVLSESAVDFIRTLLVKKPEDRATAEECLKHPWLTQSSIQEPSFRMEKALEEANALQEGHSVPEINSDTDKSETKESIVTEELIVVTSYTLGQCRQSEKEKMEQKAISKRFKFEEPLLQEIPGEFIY
Sequence of Fibroblast growth factor receptor 3 (P22607 whole entry): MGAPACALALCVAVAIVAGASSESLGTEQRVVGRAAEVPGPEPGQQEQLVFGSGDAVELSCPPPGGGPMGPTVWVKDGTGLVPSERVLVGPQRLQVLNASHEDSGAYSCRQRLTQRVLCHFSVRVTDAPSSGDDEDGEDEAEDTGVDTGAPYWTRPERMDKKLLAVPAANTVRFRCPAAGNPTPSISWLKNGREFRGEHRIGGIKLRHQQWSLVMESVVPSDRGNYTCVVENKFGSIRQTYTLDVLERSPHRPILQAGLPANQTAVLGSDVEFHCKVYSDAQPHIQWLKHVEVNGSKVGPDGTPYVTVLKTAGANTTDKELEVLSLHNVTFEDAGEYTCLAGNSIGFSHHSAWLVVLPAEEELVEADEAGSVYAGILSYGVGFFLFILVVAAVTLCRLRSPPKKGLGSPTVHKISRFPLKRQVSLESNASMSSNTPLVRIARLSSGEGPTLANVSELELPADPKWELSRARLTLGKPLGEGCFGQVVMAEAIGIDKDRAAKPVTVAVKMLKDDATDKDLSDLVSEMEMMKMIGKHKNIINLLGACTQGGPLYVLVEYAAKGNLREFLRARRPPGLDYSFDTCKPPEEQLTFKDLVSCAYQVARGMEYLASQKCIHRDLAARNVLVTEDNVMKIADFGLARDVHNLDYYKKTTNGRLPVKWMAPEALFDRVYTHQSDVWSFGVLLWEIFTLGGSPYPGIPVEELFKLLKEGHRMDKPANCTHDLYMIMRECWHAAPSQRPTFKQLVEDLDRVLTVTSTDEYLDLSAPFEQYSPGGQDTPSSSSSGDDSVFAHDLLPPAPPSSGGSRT
Sequence of Leucine-rich repeat serine/threonine-protein kinase 2 (Q5S007 whole entry): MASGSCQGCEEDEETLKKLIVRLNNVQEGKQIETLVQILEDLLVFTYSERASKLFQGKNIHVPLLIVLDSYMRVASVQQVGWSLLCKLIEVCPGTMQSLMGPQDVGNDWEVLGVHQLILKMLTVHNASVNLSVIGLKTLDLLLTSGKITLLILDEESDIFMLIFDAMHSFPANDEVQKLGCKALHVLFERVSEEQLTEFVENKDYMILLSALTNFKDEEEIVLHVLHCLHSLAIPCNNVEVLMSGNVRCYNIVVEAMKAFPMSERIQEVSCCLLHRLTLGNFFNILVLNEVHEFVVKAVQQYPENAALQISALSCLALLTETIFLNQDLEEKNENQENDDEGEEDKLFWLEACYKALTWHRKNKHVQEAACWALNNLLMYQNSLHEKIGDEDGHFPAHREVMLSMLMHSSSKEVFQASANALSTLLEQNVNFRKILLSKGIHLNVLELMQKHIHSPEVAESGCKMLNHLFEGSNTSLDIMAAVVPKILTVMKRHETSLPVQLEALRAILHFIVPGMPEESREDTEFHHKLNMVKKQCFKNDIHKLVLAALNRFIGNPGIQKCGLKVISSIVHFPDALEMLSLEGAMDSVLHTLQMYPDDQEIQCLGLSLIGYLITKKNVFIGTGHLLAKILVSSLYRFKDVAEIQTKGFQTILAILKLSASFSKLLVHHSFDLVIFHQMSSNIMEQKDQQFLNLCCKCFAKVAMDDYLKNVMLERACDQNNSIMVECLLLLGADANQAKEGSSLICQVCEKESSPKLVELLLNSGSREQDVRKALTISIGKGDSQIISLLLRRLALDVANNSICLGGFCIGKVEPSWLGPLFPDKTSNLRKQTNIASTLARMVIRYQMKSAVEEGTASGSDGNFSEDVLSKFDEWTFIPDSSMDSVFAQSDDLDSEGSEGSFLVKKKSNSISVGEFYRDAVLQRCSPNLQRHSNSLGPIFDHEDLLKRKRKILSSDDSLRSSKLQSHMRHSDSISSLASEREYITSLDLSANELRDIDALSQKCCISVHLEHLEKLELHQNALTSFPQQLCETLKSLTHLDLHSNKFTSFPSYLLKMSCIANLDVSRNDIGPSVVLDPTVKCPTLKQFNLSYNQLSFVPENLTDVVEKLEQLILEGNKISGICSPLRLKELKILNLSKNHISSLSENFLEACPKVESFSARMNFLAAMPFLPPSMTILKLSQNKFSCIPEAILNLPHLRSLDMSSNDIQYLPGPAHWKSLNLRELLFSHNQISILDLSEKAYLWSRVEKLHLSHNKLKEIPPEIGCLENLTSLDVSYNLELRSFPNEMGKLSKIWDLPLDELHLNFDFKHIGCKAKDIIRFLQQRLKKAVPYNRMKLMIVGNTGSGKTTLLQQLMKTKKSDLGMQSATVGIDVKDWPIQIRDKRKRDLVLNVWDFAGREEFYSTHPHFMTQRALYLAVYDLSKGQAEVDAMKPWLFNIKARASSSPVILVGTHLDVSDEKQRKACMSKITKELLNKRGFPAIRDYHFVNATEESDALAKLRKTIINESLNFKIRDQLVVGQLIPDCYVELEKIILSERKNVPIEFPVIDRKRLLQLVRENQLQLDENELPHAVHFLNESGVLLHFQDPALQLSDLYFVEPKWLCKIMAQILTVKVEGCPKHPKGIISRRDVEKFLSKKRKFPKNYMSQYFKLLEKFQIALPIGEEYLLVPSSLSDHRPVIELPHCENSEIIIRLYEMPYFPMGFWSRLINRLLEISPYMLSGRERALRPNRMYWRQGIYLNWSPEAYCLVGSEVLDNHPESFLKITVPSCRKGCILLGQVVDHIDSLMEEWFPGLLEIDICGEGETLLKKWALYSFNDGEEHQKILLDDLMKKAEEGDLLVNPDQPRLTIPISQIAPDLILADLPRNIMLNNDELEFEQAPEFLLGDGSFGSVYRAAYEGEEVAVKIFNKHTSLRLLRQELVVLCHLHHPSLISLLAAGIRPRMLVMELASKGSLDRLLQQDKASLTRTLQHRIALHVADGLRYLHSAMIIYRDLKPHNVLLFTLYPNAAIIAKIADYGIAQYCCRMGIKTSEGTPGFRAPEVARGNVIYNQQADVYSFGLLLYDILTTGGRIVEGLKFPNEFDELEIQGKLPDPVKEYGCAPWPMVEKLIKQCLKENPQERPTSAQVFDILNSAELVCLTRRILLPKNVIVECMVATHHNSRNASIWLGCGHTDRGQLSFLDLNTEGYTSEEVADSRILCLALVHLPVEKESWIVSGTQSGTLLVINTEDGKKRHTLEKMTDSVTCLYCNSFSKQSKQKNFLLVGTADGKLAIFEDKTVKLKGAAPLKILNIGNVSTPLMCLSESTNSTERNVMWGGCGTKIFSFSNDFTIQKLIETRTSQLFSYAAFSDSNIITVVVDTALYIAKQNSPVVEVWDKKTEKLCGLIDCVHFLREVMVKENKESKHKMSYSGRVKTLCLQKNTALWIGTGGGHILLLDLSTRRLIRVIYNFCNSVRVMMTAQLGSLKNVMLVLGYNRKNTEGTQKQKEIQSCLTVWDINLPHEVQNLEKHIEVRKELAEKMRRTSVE
Sequence of Homeodomain-interacting protein kinase 2 (Q9H2X6 whole entry): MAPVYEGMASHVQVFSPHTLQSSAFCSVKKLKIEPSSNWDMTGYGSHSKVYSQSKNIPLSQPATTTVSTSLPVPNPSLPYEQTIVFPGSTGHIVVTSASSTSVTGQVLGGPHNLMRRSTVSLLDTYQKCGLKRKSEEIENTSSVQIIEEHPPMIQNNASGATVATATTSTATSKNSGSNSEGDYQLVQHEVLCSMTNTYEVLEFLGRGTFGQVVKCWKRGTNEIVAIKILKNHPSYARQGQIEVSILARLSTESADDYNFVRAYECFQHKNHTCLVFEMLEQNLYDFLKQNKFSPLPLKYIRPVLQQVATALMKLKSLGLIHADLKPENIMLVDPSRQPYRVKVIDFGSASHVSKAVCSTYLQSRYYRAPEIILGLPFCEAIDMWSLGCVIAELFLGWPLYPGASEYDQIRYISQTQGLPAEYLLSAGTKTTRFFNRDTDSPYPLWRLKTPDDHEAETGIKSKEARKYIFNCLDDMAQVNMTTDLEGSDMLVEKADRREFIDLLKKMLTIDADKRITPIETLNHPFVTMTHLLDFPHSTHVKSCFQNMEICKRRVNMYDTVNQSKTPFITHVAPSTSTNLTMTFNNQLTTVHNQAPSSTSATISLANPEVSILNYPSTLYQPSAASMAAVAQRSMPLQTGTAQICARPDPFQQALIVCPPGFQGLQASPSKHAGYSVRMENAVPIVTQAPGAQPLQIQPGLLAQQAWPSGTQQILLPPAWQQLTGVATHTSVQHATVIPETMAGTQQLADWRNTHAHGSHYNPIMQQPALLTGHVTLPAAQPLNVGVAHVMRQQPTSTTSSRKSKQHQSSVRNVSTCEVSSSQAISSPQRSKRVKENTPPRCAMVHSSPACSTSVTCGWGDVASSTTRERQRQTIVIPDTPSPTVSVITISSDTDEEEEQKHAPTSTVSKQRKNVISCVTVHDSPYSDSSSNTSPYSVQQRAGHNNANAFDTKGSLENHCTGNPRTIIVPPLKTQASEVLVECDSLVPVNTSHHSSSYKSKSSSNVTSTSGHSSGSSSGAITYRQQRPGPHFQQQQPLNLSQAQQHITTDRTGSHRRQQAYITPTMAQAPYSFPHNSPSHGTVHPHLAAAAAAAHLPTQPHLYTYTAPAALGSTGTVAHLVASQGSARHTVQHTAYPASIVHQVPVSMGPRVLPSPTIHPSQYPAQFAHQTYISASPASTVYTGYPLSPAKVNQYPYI

With `NCCCn1cc(-c2cc(-c3cc4ccccc4s3)c3[nH]ncc3c2)c2nc(N)ncc21` the Ki [1] was 0.0794 µM (active), the Ki [2] was 0.398 µM (active) and the Ki [3] was 0.0316 µM (active). For the same compound, the Ki [4] was > 2 µM (inactive), the Ki [5] was > 2.51 µM (inactive) and the Ki [6] was > 2 µM (inactive). For the same compound, the Ki [7] was > 3.98 µM (inactive), the Ki [8] was 0.126 µM (active) and the Ki [9] was > 3.16 µM (inactive). The Ki (LIM domain kinase 1) was 1.26 µM (active), the Ki [10] was 0.1 µM (active) and the Ki [11] was 0.251 µM (active). For the same compound, the Ki [12] was > 2.51 µM (inactive), the Ki [13] was 0.631 µM (active) and the Ki [14] was > 1.58 µM (inactive). The Ki [15] was > 3.98 µM (inactive), the Ki [16] was > 1.58 µM (inactive) and the Ki [17] was > 2 µM (inactive). The Ki [18] was 0.0398 µM (active), the Ki [19] was > 2.51 µM (inactive) and the Ki [20] was 0.251 µM (active). The Ki [21] was > 2.51 µM (inactive), the Ki [22] was > 3.98 µM (inactive) and the Ki [23] was 0.251 µM (active). For the same compound, the Ki [24] was > 1.58 µM (inactive), the Ki [25] was > 1.58 µM (inactive) and the Ki [26] was > 1.58 µM (inactive). The Ki [27] was 0.0126 µM (active), the Ki [28] was 0.501 µM (active) and the Ki [29] was > 2.51 µM (inactive). The Ki [30] was 0.251 µM (active) and the Ki [31] was 0.00794 µM (active).

In the case of `CCCn1nc([N+](=O)[O-])c(C(C#N)c2nc3ccccc3s2)c(Cl)c1=O` (centres undefined), the EC50 [32] is reported as 10.7 µM (active) and the EC50 (Protein RecA) is reported as 2.17 µM (active).
